Test results published in patent US9649303B2, “Methods and treatment for allergies and inflammation associated with gastrointestinal diseases” (MASTCELL PHARMACEUTICALS, INC., priority 2008, dated 2017).

Key:
eosinophils = conditions: cited from earlier work
[1] = test system: a patient with eosinophilic esophagitis; conditions: elimination of diet including eggs, treatment with ketotifen and montelukast; cited from earlier work
[2] = test system: patients with a history of hazelnut allergy; test: Oral food challenge with hazelnut flour under ketotifen or placebo (Example 1); assay type: in vivo, human
Description: Twenty-four patients with adverse food reaction are included in this study. As controls, twelve patients matched for age and gender and a history of GERD (Group A) and another twelve patients matched for age and gender and no history of any gastrointestinal disorder (Group B) are included. The history of use of antacids and satisfaction are recorded for both groups.
To analyze hypersensitivity to hazelnut, a double-blind, randomized, dose-ranging study is carried out with patients with a history of hazelnut allergy manifested by urticaria, angioedema, respiratory tract symptoms or hypotension generally using the methods described in Israel et al., Am. J. Respir. Crit. Care Med., (2000) 164:75-80. Eligible patients include those with serum total IgE level of 30-1000 IU/mL and/or a positive skin-prick test to hazelnut. […]
Before enrollment, threshold level for reactivity to hazelnut allergen is confirmed by a screening double-blind, placebo-controlled oral food challenge. […] Vital signs are checked, chest auscultation is performed, and peak expiratory flow rates are monitored every 30 minutes during the food challenge and for at least 2 hours after the last dose or the abatement of any symptoms or signs. […]
Peak expiratory flow rates are monitored every 30 minutes during food challenge for at least 2 hours after the last does or abatement of any symptoms or signs. […]

[3] = test system: adult patients who have a history of GERD; test: GERD patients on omeprazole, ketotifen or both: GI symptoms and allergen-specific serum IgE (Example 4); assay type: in vivo, human
Description: The following study may be carried out to analyze the effectiveness of mast cell stabilizer in treating gastrointestinal disorders and/or as a prophylaxis against the development of allergy in patients at risk of developing sensitivity to such allergen, e.g., sensitivity to hazelnut, when exposed to it.
Sera of nine adult patients who have a history of GERD are collected. None of the patients report adverse reactions to inhalant or food allergens; however, IgE immunoblots are performed to screen their allergic state. Three patients from Group A are administered a proton pump inhibitor, e.g, omeprazole (Group A-1). Three patients from Group A are administered an oral dose of 0.5, 1, or 2 mg of ketotifen orally twice daily (Group A-2). […]
Serum IgE and Skin Tests in Patients: Sera are tested for allergen-specific IgE against hazelnut and inhalative allergens from tree pollen (eg, birch, hazel, and alder), grass pollen, weed pollen, molds, house dust mites, insect venoms, and animal dander. […] Additionally, total IgE is determined before and at the 3-mo time point. […]
Gastrointestinal Symptoms: Symptoms of gastrointestinal side effects such as GERD, nausea, abdominal pain, vomiting, gastritis and/or dyspepsia are recorded based on the severity and frequency of the symptoms. […]

[4] = test system: patients undergoing desensitization to oral allergen (hazelnut); test: Desensitization to oral allergen with hazelnut extract plus ketotifen (Example 3); assay type: in vivo, human; conditions: ketotifen plus hazelnut extract immunotherapy vs immunotherapy alone
Text: To evaluate the efficacy of ketotifen in desensitization process against oral allergen such as hazelnut, a similar study as described in Example […] may be carried out except with the use of hazelnut extract rather than ragweed extract.

PAF production = conditions: cited from earlier work
[5] = test system: patients who have a diagnosis of eosinophilic esophagitis and food allergy; test: Eosinophilic esophagitis: ketotifen oral tablet vs topical gel (Example 7); assay type: in vivo, human
Description: To evaluate the effectiveness of ketotifen in patients who have a diagnosis of eosinophilic esophagitis and food allergy, two groups of patients will be tested. One group is orally administered ketotifen at 0.5 mg, 1 mg, or 2 mg, twice daily as a tablet.

[6] = test system: OVA sensitized female BALB/c mice; test: Sensitization to new allergen in a model of pre-existing food allergy (Example 6); assay type: in vivo
Description: A study is conducted to determine whether atopic animals are more easily sensitized to a newly introduced allergen (e.g., hazel nut). Four groups of female BALB/c mice (7-8 weeks old) are sensitized by intraperitoneal (IP) injections 2 weeks apart with ovalbumin (OVA; 50 μg) in 1.3% aluminum hydroxide (200 μl) followed 2 weeks later by 7 seven intragastric challenges (every other day) with saline or 5, 10, or 50 mg OVA, a selected dose of hazel nut, or combination of OVA and hazelnut. Endpoints include observance of diarrhea after intragastric challenge, Serum total and antigen specific IgE and IgG 1, gut to body weight ratio, intestinal permeability, and histological evaluation are performed. […] A second experiment assesses the ability of ketotifen to inhibit the induction of allergy to a newly introduced food allergen in animals with a pre-existing gastrointestinal allergy. […] A group of BALB/c mice similarly sensitized to OVA, but continuing to receive intragastric hazel nut in the absence of intragastric OVA fails to develop an observable gastrointestinal allergy phenotype.

[7] = test system: patients undergoing desensitization to airborne allergen (ragweed); test: One-day rush immunotherapy with short ragweed extract after ketotifen or placebo pretreatment (Example 2); assay type: in vivo, human; conditions: ketotifen 1 mg b.i.d. plus ragweed immunotherapy vs immunotherapy alone
Description: To evaluate the effectiveness of mast cell stabilizer, e.g., ketotifen, in desensitization or immunotherapy, particularly RUSH immunotherapy, a randomized, double-blind, placebo-controlled study is performed. Patients are randomly assigned to 4 treatment groups (1:1:1:1). Pretreatment with either ketotifen, 1 mg, b.i.d., or placebo, is carried out for nine weeks to protect, prevent, inhibit or ameliorate allergic reaction, particularly to prevent, normalize or ameliorate gastrointestinal symptoms. One-day rush immunotherapy (week 0) is completed at least 3 weeks before the start of the ragweed season. On the day of rush immunotherapy, the patients receive 6 injections of either placebo or aqueous short ragweed extract. Ragweed dosing starts with a diluted extract containing 0.012 μg of Amb a 1 (a major allergen in ragweed) over a 3-hour period, reaching a maximum of 1.2 μg of Amb a 1. […]
The efficacy end point is determined by comparing the average daily allergy severity scores (measured on a scale of 0-3) between patients receiving ketotifen plus immunotherapy versus those who receive just immunotherapy alone. The score is calculated from the average of individual scores for symptoms of gastrointestinal disorders, e.g., abdominal pain, nausea, diarrhea, and/or heartburn.

[8] = test system: patients who have a history of GERD, unresponsive to conventional proton pump inhibitors or antacids; test: GERD patients unresponsive to proton pump inhibitors or antacids: ketotifen vs omeprazole (Example 5); assay type: in vivo, human; conditions: ketotifen 0.5 mg, 1 mg, 2 mg twice daily or omeprazole 1×20 mg/d
Description: To evaluate the effectiveness of ketotifen in patients who have a history of GERD, but are unresponsive to conventional proton pump inhibitors or antacids, two groups of patients are tested as similar to Example 4. One group is administered ketotifen at 0.5 mg, 1 mg, 2 mg, twice daily. The second group is treated with omeprazole, 1×20 mg/d. Sera IgE are evaluated before and after administration of ketotifen or omeprazole and gastrointestinal symptoms are recorded based on severity and frequency of symptoms.

[9] = test system: sensitization to previously tolerated ovalbumin; conditions: co-administered with ovalbumin; via elevation of the gastric pH; cited from earlier work

In the case of `CN1CCC(=C2c3ccccc3CC(=O)c3sccc32)CC1` [ketotifen], the eosinophil chemotaxis (eosinophils) is given as “inhibiting chemotaxis”, the clinical outcome [1] is given as “clinical relief” and the “reflux symptom reporting during the study” value ([2]; GERD patients, Group A1 (ketotifen) vs Group A2 (placebo)) is given as “significantly lower”. The “tolerance (severity of reaction) to hazelnut upon oral ingestion” value ([2]; ketotifen 0.5, 1 or 2 mg orally twice daily, Group A-1 and B-1 compared to placebo groups A-2 and B-2, challenge at two, four and six weeks) was “significant increased tolerance”, the “hazelnut-specific (and other allergen specific) IgE in blood sera” value ([3]; after onset of treatment, Groups A-1, A-2, A-3) was “improved GERD symptoms and hazelnut-specific IgE” and the GERD symptoms ([3]; omeprazole 1×20 mg/d (A-1), ketotifen 0.5, 1 or 2 mg orally twice daily (A-2), both (A-3)) was “improved GERD symptoms”. The “adverse events of gastrointestinal disorders” value [4] was “fewer adverse events of gastrointestinal disorders”, the allergy severity scores [4] was “significantly improved allergy severity scores” and the PAF production (PAF production) was “suppresses PAF production”. For the same compound, the patient-reported symptoms ([5]; ketotifen 0.5 mg, 1 mg or 2 mg twice daily as oral tablet) was “partial improvement of symptoms”, the “overall effectiveness compared between formulations” value ([5]; oral tablet vs topical gel vs topical corticosteroids) was “inferior to those observed with the topical gel formulation” and the blood eosinophilia ([5]; oral tablet, blood analysis) was “decreased eosinophilia”. For the same compound, the “eosinophils, mast cells and degranulation in esophageal biopsies” value ([5]; oral tablet, compared to pre-treatment biopsies) was “fewer numbers of eosinophils and mast cells and less degranulation”, the “development of new sensitivity to hazel nut” value ([6]; OVA sensitized mice receiving intragastric hazelnut with ketotifen or OVA plus hazelnut with ketotifen) was “fail to develop new sensitivity to hazel nut” and the “gastrointestinal allergy phenotype upon OVA intragastric challenge” value ([6]; female BALB/c mice sensitized to OVA) was “significantly suppresses the gastrointestinal allergy phenotype”. For the same compound, the “adverse events of gastrointestinal disorders” value [7] was “fewer adverse events of gastrointestinal disorders”, the allergy severity scores ([7]; scale of 0-3) was “significantly improved allergy severity scores” and the GERD symptoms [8] was “improved GERD symptoms”. For the same compound, the “allergen specific IgE in blood sera” value [8] was “few new allergen specific IgE”.

In the case of sucralfate, the “sensitization to previously tolerated ovalbumin” value [9] is listed as “caused sensitization to previously tolerated ovalbumin”.
